According to US8530508B2, “Thrombopoietin receptor agonist (TpoRA) kills acute human myeloid leukemia cells” (GlaxoSmithKline LLC, priority 2007, dated 2013):

Experiments:
N2C-TPO cells = assay: Proliferation of TPO dependent cell line N2C-TPO; assay type: cell-based
Protocol: N2C-TPO cells were derived by culture of a megakaryblastic cell line in rhTpo for 10 weeks and provided by Glaxo SmithKline Pharmaceuticals (Collegeville, Pa.). N2C-TPO cells were cultured in RPMI (Invitrogen, Carlsbad, Calif.) medium supplemented with 10% Animal Serum Complex—Fetalplex (Gemini Bio-Products, West Sacramento, Calif.), 0.5% Penicillin/Streptomycin (Invitrogen; Carlsbad, Calif.) and 20 ng/ml rhTPO.
In order to determine if Compound A has the ability to function as a thrombopoietin receptor (TpoR) agonist and stimulate proliferation and differentiation of human megakaryocytes, a number of cell culture experiments were performed using the Tpo dependent cell line (N2C-TPO) as well as normal human CD34+ cells. […] Consequently the 5 μM dose was used in further experiments where properties of rhTPO versus Compound A were directly compared.

human CD34+ cells = assay: Megakaryocyte colony forming assay; assay type: cell-based; settings: Compound A 5 μM vs rhTPO 100 ng/ml; fibrin clots, 10 days, CD41 stain
Protocol: Normal human progenitor cells were plated in fibrinogen clots at a density of 5000 CD34+ cells per ml. Fibrinogen clots were prepared as follow: cells were re-suspended in IMDM medium supplemented with sodium bicarbonate (3 mg/ml); 3-mercapto-1-2propanediol (0.002%); transferring (300 μg/ml); CaCl2(37 μg/ml); fatty acid free, deionized BSA (10%); insulin (20 μg/ml); cholesterol (5.6 μg/ml) cytokines: IL-3 (10 ng/ml), SCF (10 ng/ml) and rhTPO (100 ng/ml equal 2.8 μM) or Compound A (5 μM). Then clotting mix containing fibrinogen (0.2%) and thrombin (0.2 u/ml). Cells were plated on 35 mm culture dishes and cultured in humidified incubator at 37° C. and 5% CO2. After 10 days, colonies were fixed and stained for megakaryocyte marker CD41a with fluorescently labeled antibody. Megakaryocyte colonies were counted using inverted fluorescent microscope.
Normal human progenitor cells (CD34+) were used to evaluate capability of Compound A to stimulate proliferation and differentiation of megakaryocytes. CD34+ cells were plated in fibrin clots and cultured for 10 days, after which time colonies were fixed and stained with antibody specific for megakaryocytic marker CD41. […]

CD34+ cells = assay: Liquid culture of human progenitor cells (polyploidization, CD41/CD61 expression); assay type: cell-based; settings: CD34+ cells in cytokines, 7-10 days
Protocol: Normal human progenitor cells (CD34+) were used to evaluate capability of Compound A to stimulate proliferation and differentiation of megakaryocytes. CD34+ cells were plated in fibrin clots and cultured for 10 days, after which time colonies were fixed and stained with antibody specific for megakaryocytic marker CD41. […] CD34+ cells were incubated in cytokines with rhTPO or Compound A for periods of 7-10 days, after which time cells in culture were examined for degree of polyploidization, and expression of megakaryocyte lineage markers CD41 and CD61.

[1] = test system: primary leukemia cells from patients with acute myelogenous leukemia (AML); assay: Proliferation of primary AML cells; assay type: cell-based, human
Protocol: (§1) Human primary leukemia cells were obtained from Stem Cell and Leukemia Core at the University of Pennsylvania. Cells were cultured in EGM-2 (Endothelial Cell Medium-2, Cambrex; East Rutherford, N.J.). All cells were cultured in humidified incubator at 37° C. and 5% CO2.
(§2) Samples were obtained from 18 patients with acute myelogenous leukemia (AML), 7 patients with acute lymphocytic leukemia (ALL) and 3 patients with chronic myelogenous leukemia (CML). In 17 out of 18 tested AML samples, Compound A inhibited cell proliferation 70-90% when compared to untreated controls or cells cultured with rhTPO (FIG. 2A).
Further the effect of various doses of Compound A (1 μM, 2.5 μM and 5 μM) on AML samples was examined. This experiment was performed on 6 different samples. […] In the remaining 3 samples, doses of 1 μM and 2.5 μM Compound A had no effect on cell proliferation and survival.

[2] = test system: primary cells from patients with acute lymphocytic leukemia (ALL); assay: Proliferation of primary ALL cells; assay type: cell-based, human; settings: ALL patient samples
Protocol: as §1, §2

[3] = test system: primary cells from patients with chronic myelogenous leukemia (CML); assay: Proliferation of primary CML cells; assay type: cell-based, human; settings: CML patient samples
Protocol: as §1, §2

[4] = test system: STAT5, ERK, p70S6, ribosomal kinase S6 in N2C-TPO cells; assay: Western blot analysis of kinase phosphorylation in N2C-TPO cells; assay type: cell-based; settings: 10 or 30 minutes
Protocol: (§3) Controls and cells stimulated with rhTPO or Compound A were washed twice in PBS, then pelleted. The pellet was dissolved in triple-lysis buffer comprised of 50 mM TRIS, 150 mM NaCl, 0.02% sodium azide, 0.1% sodium dodecyl sulphate (SDS) and 1% Igepal (Sigma, St. Louis, Mo.), and then incubated for 30 min on ice with vortexing every 10 min. The lysate was then spun at maximum speed in a microcentrifuge at 4° C. for 10 min. The extracted cell supernatant was used for Western-blot analysis.
(§4) Protein concentration was determined by a Bradford protein assay (Bio-Rad, Hercules, Calif.). A total of 150 μg protein extract was resolved on a 10% polyacrylamide gel (150V, 60 min.) then transferred to a poly vinylidene fluoride (PVDF) membrane (25V, 60 min). Condensed milk (5%) was used as a blocking solution. The membrane was incubated overnight at 4° C. with primary antibody at a 1:1000 dilution. After incubation, the membrane was washed three times in TBS-T buffer and probed with secondary HRP-conjugated antibody (Amersham Biosciences; Piscataway, N.J.) at dilution 1:1000 for 2 hour at room temperature. All antibodies were purchased from Cell Signaling Technology (Danvers, Mass.).
The effect of Compound A on phosphorylation of kinases known to be important in the Tpo signaling pathway was examined. Kinases evaluated include STAT5, ERK, p70S6, and ribosomal kinase S6. […]

[5] = test system: STAT5, ERK, p70S6, S6 ribosomal protein in human progenitor cells CD34+; assay: Western blot analysis of kinase phosphorylation in CD34+ cells; assay type: cell-based; settings: rhTPO 2.8 μM or Compound A 5 μM
Protocol: as §3, §4
The effect of Compound A on phosphorylation of kinases known to be important in the Tpo signaling pathway was examined. Kinases evaluated include STAT5, ERK, p70S6, and ribosomal kinase S6. […] The same experiment was performed on human progenitor cells CD34+, which are stimulated by Compound A to differentiate into the megakaryocytes.

[6] = test system: cells obtained from AML patients; assay: Rescue proliferation assay: rhTPO plus Compound A on AML cells; assay type: cell-based, human
Protocol: Proliferation assays were performed on cells obtained from 6 AML patients. In some experiments, cells were first exposed to Compound A and then stimulated with rhTPO five minutes later. To avoid the possibility of all receptors being occupied by Compound A and therefore preventing rhTPO from binding, other experiments were also performed by first stimulating the cells with rhTPO followed by exposure to Compound A 5 minutes later.

[7] = test system: STAT5, ERK, p70S6 kinases and S6 ribosomal protein in N2C-TPO cells; assay: Rescue of kinase phosphorylation in N2C-TPO cells (rhTPO plus Compound A); assay type: cell-based; settings: rhTPO first then Compound A, or the reverse
Protocol: as §3, §4
In an effort to address these possibilities, similar rescue experiments were performed on N2C-TPO cells while evaluating phosphorylation of kinases involved in TPO pathway.

[8] = test system: primary cells from AML patient 774; assay: Annexin V / propidium iodide apoptosis assay, primary AML cells; assay type: cell-based, human; settings: AML patient 774, 72 hours; vs control and Tpo+DMSO
Description: (§5) Annexin-V is a phospholipid binding protein with a high affinity for phosphatidylserine (PS). Annexin V will not bind normal, intact cells, but necrotic cells are leaky enough to give Annexin V access to inner membrane PS. Propidium iodide stains DNA. The assay therefore identifies cells undergoing apoptosis.
(§6) Primary cells were isolated from either an AML (patient 774; top row) or ALL (patient 710; bottom row) patient. The cells were then exposed to either control solution (left pair of panels), rhTpo+DMSO (middle pair of panels), or SB559457 (right pair of panels) for 72 hours.

[9] = test system: primary cells from ALL patient 710; assay: Annexin V / propidium iodide apoptosis assay, primary ALL cells; assay type: cell-based, human; settings: ALL patient 710, 72 hours
Description: as §5, §6

[10] = test system: GAPDH and Redd1 mRNA in primary AML cells; assay: Quantitative real time PCR of GAPDH and Redd1 in primary AML cells; assay type: cell-based, human; settings: primary AML samples, 6 hours, QRT-PCR
[11] = test system: p70S6 kinase and ribosomal kinase S6 in primary AML cells; assay: Western blot of p70S6 and S6 kinase phosphorylation in primary AML cells; assay type: cell-based, human; settings: primary AML samples, 3 hours; SB559457 5 μM, Tpo 2.86 μM
Protocol: as §3, §4
In an effort to establish a correlation between cell signaling and array data, phosphorylation of kinases involved in Tpo signaling pathway in primary leukemia cells was examined. […]

Compound	concentration of maximal effects on cell proliferation (N2C-TPO cells)	number of megakaryocyte colonies compared to rhTPO (human CD34+ cells)	cells expressing megakaryocyte markers CD41 and CD61 (CD34+ cells)	cells with greater than 4N DNA content (CD34+ cells)	effect on cell proliferation and survival ([1]; 1 μM and 2.5 μM, remaining 3 of 6 AML samples)	leukemia cell growth and proliferation ([1]; 5 μM, remaining 3 of 6 AML samples)	effect on cell proliferation ([1]; 1 and 2.5 μM, 3 of 6 AML samples)	inhibition of cell proliferation ([1]; 17 out of 18 AML samples, vs untreated controls or cells cultured with rhTPO)	effect on cell proliferation / growth or viability [2]	effect on cell proliferation / growth or viability [3]	phosphorylation of STAT5, ERK, p70S6 and ribosomal kinase S6 [4]	ERK, p70S6 and S6 ribosomal protein phosphorylation [5]	phosphorylation of STAT5 [5]	rescue of AML cell survival by rhTPO ([6]; samples 794 and 332, rhTPO added with Compound A)	rescue of AML cell survival by rhTPO ([6]; samples 857, 774, 759, 342, rhTPO added 5 minutes before or after Compound A)	phosphorylation of STAT5, ERK, p70S6 kinases and S6 ribosomal protein with rhTPO plus Compound A [7]	Annexin V and PI positive cells (apoptosis) [8]	cellular apoptosis [9]	expression of GAPDH relative to cells treated with rhTpo [10]	phosphorylation of p70S6 kinase at Thr421/Ser424 and ribosomal kinase S6 [11]
CC1=NN(c2ccc(C)c(C)c2)C(=O)/C1=N\Nc1cc(F)cc(-c2cccc(C(=O)O)c2)c1O [Compound A, 3′-{N′-[1-(3,4-dimethylphenyl)-3-methyl-5-oxo-1,5-dihydropyrazol-4-ylidene]hydrazine}-5′-fluoro-2′-hydroxybiphenyl-3-carboxylic acid]	5 to 10 µM	slightly lower	35%	14%	no effect	inhibited leukemia cell growth and proliferation	had an effect on cell proliferation	70-90%	No significant effects	No significant effects	none of those kineses were activated	activation	only cells exposed to rhTPO	adding rhTPO did attenuate the Compound A effect	not rescued	rescue of phosphorylation	increase in Annexin V and PI positive cells	No significant increases in cellular apoptosis	at least two times higher	high phosphorylation
rhTPO: Full length recombinant human thrombopoietin (rhTPO) obtained from R&D Systems				8%							high phosphorylation level	activation	stimulated phosphorylation of STAT5							none or very little phosphorylation
